Reference: patent publication US20080085882A1, “Compositions and Methods for Potentiation of Cancer Agents” (priority 2006, published 2008)
“Also recorded” adds a separate entry of the source.

Experiments:
[1] = system: checkpoint activation (DNA-damage-induced interaction between two selected checkpoint proteins); experiment: two-hybrid assay-based yeast screen for agents that modify cell cycle checkpoint activation; conditions: in response to the topoisomerase I inhibitor camptothecin
Protocol: A two-hybrid assay-based yeast system was used to screen small-molecule compound libraries for agents that modify cell cycle checkpoint activation. Checkpoint activation is measured as the DNA-damaged-induced increased interaction between two selected checkpoint proteins.

wild-type yeast = experiment: sensitivity towards DNA damaging agents, survival of macrocolony forming cells, wild type; assay type: cell-based; parameters: key: +: increased resistance; −: decreased resistance; conditions: strain WT
Protocol: (§1) As another example, the drug streptonigrin was used as a double-strand break inducing drug. After treatment of logarithmically growing yeast cultures for 1 h at 30° C. in YPD medium (1% yeast extract, 2% peptone, 2% dextrose), lethality was measured by inability of colony formation on YPD agar plates. […] The used concentration of 50-100 μg/ml results in 80% survival after 1 h incubation.
(§2) In summary, the incubation of logarithmic phase cells of wild-type yeast and a double-strand break repair deficient derivative (rad51) (Amberg, D. C., D. J. Burke, and J. N. Strathern. 2005. Methods in Yeast Genetics: A Cold Spring Harbor Laboratory Course Manual, 2005 Edition. Cold Spring Harbor Laboratory Press, Cold Spring Harbor, N.Y.) with compound NSC109268 had the following effects on sensitivity towards DNA damaging agents, measured as survival of macrocolony forming cells (+increased resistance, −decreased resistance, ND not determined): Table 1 summarizes the effects of NSC109268 on senstivity towards DNA Damaging Agents in repair-proficient wild type and rad 51^− cells.

[2] = system: double-strand break repair deficient derivative (rad51) yeast; experiment: sensitivity towards DNA damaging agents, survival of macrocolony forming cells, rad51; assay type: cell-based; parameters: key: +: increased resistance; −: decreased resistance; conditions: strain rad51
Protocol: as §1, §2

yeast cultures [3] = experiment: lethality of logarithmically growing yeast cultures, colony formation on YPD agar; assay type: cell-based
Protocol: as §1
Curiously, the opposite effect was found for other agents such hydrogen peroxide (H2O2), an oxidative agent causing base damage and strand breaks.

WT strain BY4741 = experiment: cisplatin/NSC combination treatments, fraction of colony forming cells; assay type: cell-based, yeast; conditions: 2 hours at 30° C. in water
Protocol: This enhancement of cisplatin sensitivity by NSC109268 was quantified. We also tested the chemically related compound NSC 109272. Cells of a logarithmic-phase culture of WT strain BY4741 were incubated for 2 hours at 30° C. in water containing the combinations of NSC109268 or NSC109272 and cisplatin shown in Table 2. The fraction of colony forming cells was determined on solid YPD medium.

[4] = system: PC3 prostate adenocarcinoma cells; experiment: MTS cell survival, cisplatin plus NSC109268; assay type: cell-based, human
Protocol: (§3) Based on the cisplatin result in yeast, the inventors explored if a similar effect can be detected in human cells. […] Survival was determined in the presence or absence of compound NSC109268 using Cell Titer 96 Aqueous Cell Proliferation Assay kit from Promega, Madison, Wis. All cultures, unless specified otherwise, were maintained in growth medium composed of RPMI with 2 mM L-glutamine, 100 units/ml of Penicillin, and 100 μg/ml Streptomycin, supplemented with 10% fetal bovine serum under a humidified atmosphere of 95% air, 5% CO2 at 37° C. Briefly, cells were plated in 96-well tissue culture plates at 5-8×10^3 cells/well and allowed to attach overnight in growth medium. The following day, cells were rinsed twice in DMEM and further incubated in serum-free medium for 24 h. Cells were then treated with cisplatin [0-100 μM] in the presence of NSC109268 [0, 1, 2, 3 μM] for 48 h. Dose-response studies were initially done to determine appropriate dosages for the drugs and their vehicles. Negative controls involved the use of DMF, vehicle for cisplatin (˜0 μM) or DMSO, vehicle for NSC109268 (˜0 μM). […] MTS is taken up by live cells where it is reduced by the dehydrogenase enzymes and released back into the culture medium as a yellow formazan product. The amount of formazan product measured in terms of absorbances is directly proportional to the number of live cells in the cultures. Thus, absorbance readings at 490 nm were taken after 1 h and converted to cell numbers based on standard curves. Standard curves were done using cells maintained in RPMI in 96-well plates at the same time. Experiments were done in triplicate wells at least 4 times. Statistical analyses were done using ANOVA. […] Several series of studies were conducted using DMF (solvent control=0) and various concentrations of cisplatin in combination with (DMSO (solvent control=0), 1 μM NSC1092682 μM NSC109268, and 3 μM NSC109268. Survival was plotted in a logarithmic scale against cisplatin dose, with different symbols indicating the amount of added NSC109268 (see FIG. 1A insert), for the RWPE-1 normal prostate cell line (FIG. 1A), PC3 prostate cancer cells (FIG. 1B), cisplatin-sensitive ovarian cancer cells (2008) (FIG. 1C) and cisplatin-resistant ovarian cancer cells (2008/IC3) (FIG. 1D).

[5] = system: cisplatin resistant ovarian cancer cells (2008/IC3); experiment: MTS cell survival, cisplatin plus NSC109268; assay type: cell-based, human
Protocol: as §3

[6] = system: cisplatin sensitive ovarian cancer cells (2008); experiment: MTS cell survival, cisplatin plus NSC109268; assay type: cell-based, human; conditions: cisplatin 0-100 μM, NSC109268 0-3 μM, 48 h
Protocol: Based on the cisplatin result in yeast, the inventors explored if a similar effect can be detected in human cells. […] Survival was determined in the presence or absence of compound NSC109268 using Cell Titer 96 Aqueous Cell Proliferation Assay kit from Promega, Madison, Wis. All cultures, unless specified otherwise, were maintained in growth medium composed of RPMI with 2 mM L-glutamine, 100 units/ml of Penicillin, and 100 μg/ml Streptomycin, supplemented with 10% fetal bovine serum under a humidified atmosphere of 95% air, 5% CO2 at 37° C.
Briefly, cells were plated in 96-well tissue culture plates at 5-8×10^3 cells/well and allowed to attach overnight in growth medium. The following day, cells were rinsed twice in DMEM and further incubated in serum-free medium for 24 h. Cells were then treated with cisplatin [0-100 μM] in the presence of NSC109268 [0, 1, 2, 3 μM] for 48 h. […]
To determine the number of surviving cells, cells were incubated in 333 μg/ml MTS [3-(4,5-dimethylthiazol-2-yl)-5-(3-carboxymethoxyphenyl)-2-(4-sulfophenyl)-2H-tetrazolium], a tetrazolium salt, and 25 μM phenazine methosulfate (PMS), an electron coupling reagent. […] The amount of formazan product measured in terms of absorbances is directly proportional to the number of live cells in the cultures. Thus, absorbance readings at 490 nm were taken after 1 h and converted to cell numbers based on standard curves. […]

yeast cultures [7] = experiment: lethality of logarithmically growing yeast cultures, colony formation on YPD agar; assay type: cell-based; remark: listed apart in the source
[8] = cisplatin 0-100 μM, NSC109268 0-3 μM, 48 h
[9] = compared to cisplatin-sensitive cells (2008)

Molecule: Copper, di-μ-chlorobis[1-[(1-piperidinyl-κN)methyl]-2-naphthalenolato-κO]di-(9CI) [NSC109268]
- effect on checkpoint activation [1]: interfere with checkpoint activation
- effect on sensitivity towards DNA damaging agent (wild-type yeast; Cisplatin): −
- effect on sensitivity towards DNA damaging agent (wild-type yeast; MNNG): +
- effect on sensitivity towards DNA damaging agent (wild-type yeast; Streptonigrin): +
- effect on sensitivity towards DNA damaging agent ([2]; Cisplatin): −
- effect on sensitivity towards DNA damaging agent ([2]; Ionizing radiation (137Cs)): +
- effect on sensitivity towards DNA damaging agent ([2]; Phleomycin): +
- survival (yeast cultures [3]; compound itself, 50-100 μg/ml, 1 h incubation): 80%
- effect on sensitivity to DNA damaging agent (yeast cultures [3]; hydrogen peroxide (H2O2), simultaneous exposure): sensitivity is enhanced
- effect on lethality of DNA damaging agent (yeast cultures [3]; streptonigrin, 1 h at 30° C. in YPD medium): protective effect
- toxicity of the compound itself (yeast cultures [3]; yeast, 1 h at 30° C. in YPD medium): moderate toxicity
- cell survival (fraction of colony forming cells) (WT strain BY4741; NSC109268 7.4 nM + 33 μM Cisplatin): 29%
- cell survival (fraction of colony forming cells) (WT strain BY4741; NSC109268 7.4 nM + 82.5 μM Cisplatin): 25.5%
- cell survival (fraction of colony forming cells) (WT strain BY4741; NSC109268 7.4 nM + 165 μM Cisplatin): 0.09%
- cell survival (fraction of colony forming cells) (WT strain BY4741; NSC109268 7.4 nM, 0 μM Cisplatin): 79.5%
- cell survival (fraction of colony forming cells) (WT strain BY4741; NSC109268 37 nM + 165 μM Cisplatin): <0.4%
- cell survival (fraction of colony forming cells) (WT strain BY4741; NSC109268 37 nM, 0 μM Cisplatin): 10%
- effect of combination with cisplatin on survival [4, 8]: synergistically enhanced; also recorded: increases cellular sensitivity to cisplatin
- toxicity of NSC109268 alone ([4]; range of concentrations that increases sensitivity to cisplatin): (virtually) non-toxic
- survival ([5]; 2 μM NSC109268 without any cisplatin, 48 h): 38%
- measured survival ([5]; 5 μM cisplatin/2 μM combination treatment, 48 h): 4.5%
- survival expected if the effects were independent ([5]; 5 μM cisplatin/2 μM combination treatment, 85% of 38%): 32%
- effect of combination with cisplatin on survival [5, 8]: synergistically enhanced
- enhancement effect on cisplatin [5, 9]: much more pronounced
- toxicity without added cisplatin [5, 9]: much more toxic
- effect of combination with cisplatin on survival [6]: synergistically enhanced
- effect on sensitivity to DNA damaging agent (yeast cultures [7]; alkylating agent (MMS)): does not seem to affect sensitivity
- effect on lethality of DNA damaging agent (yeast cultures [7]; ionizing radiation (137Cs γ-radiation)): less significantly
- effect on sensitivity to DNA damaging agent (yeast cultures [7]; phleomycin): does not seem to affect sensitivity
- effect on sensitivity to DNA damaging agent (yeast cultures [7]; ultraviolet radiation (UV-C)): does not seem to affect sensitivity

Molecule: Copper, di-μ-chlorobis[1-[(4-morpholinyl-κN4)methyl]-2-naphthalenolato-κO]di-(9CI) [NSC109272]
- cell survival (fraction of colony forming cells) (WT strain BY4741; NSC109272 1.5 nM + 165 μM Cisplatin): 4%
- cell survival (fraction of colony forming cells) (WT strain BY4741; NSC109272 1.5 nM, 0 μM Cisplatin): 70%

Molecule: N.N.[Cl][Pt][Cl] [Cisplatin, cis-Diammineplatinum (II) dichloride, reference compound]
- cell survival (fraction of colony forming cells) (WT strain BY4741; 33 μM Cisplatin alone): 71%
- cell survival (fraction of colony forming cells) (WT strain BY4741; 82.5 μM Cisplatin alone): 44.5%
- cell survival (fraction of colony forming cells) (WT strain BY4741; 165 μM Cisplatin alone): 21%
- survival ([5]; 5 μM of cisplatin without any added NSC109268, 48 h): 85%
